Test results as given in US7964531B2, “3-phenoxy-4-pyridazinol derivatives and herbicidal composition containing the same” (Mitsui Chemicals Agro, Inc., priority 2001, dated 2011).

| Structure (SMILES) | melting point [°C] |
| --- | --- |
| CCc1ccccc1Oc1nnc(Cl)cc1O [Compound No. 130, 6-Chloro-3-(2-ethylphenoxy)-4-pyridazinol] | 217 to 218 |
| Cc1ccc(N(C)C)cc1Oc1nnc(Cl)cc1O [Compound No. 628, 6-Chloro-3-[5-(dimethylamino)-2-methylphenoxy]-4-pyridazinol] | 181 to 182 |
| CN(C)C(=O)Oc1cc(Cl)nnc1Oc1ccccc1C1CC1 | 137 to 138 |
| COc1ccccc1Oc1nnc(Cl)cc1O [Compound No. 385, 6-Chloro-3-(2-methoxyphenoxy)-4-pyridazinol] | 191 to 194 |
| CCCCc1ccccc1Oc1nnc(Cl)cc1O [Compound No. 133, 3-(2-Butylphenoxy)-6-chloro-4-pyridazinol] | 149.5 to 150 |
| CC(=O)c1cccc(Oc2nnc(Cl)cc2O)c1 [Compound No. 422, 1-{3-[(6-Chloro-4-hydroxy-3-pyridazinyl)oxy]phenyl}ethanone] | 195 to 198 |
| Oc1cc(Cl)nnc1Oc1cccc2ccccc12 [Compound No. 527, 6-Chloro-3-(1-naphthyloxy)-4-pyridazinol] | 243 to 245 |
| CC(C)(C)c1ccc(Oc2nnc(Cl)cc2O)cc1 [Compound No. 433, 3-(4-tert-Butylphenoxy)-6-chloro-4-pyridazinol] | 224 to 225 |
| Cc1ccc(Cl)cc1Oc1nnc(Cl)cc1O [Compound No. 618, 6-Chloro-3-(5-chloro-2-methylphenoxy)-4-pyridazinol] | 174 to 180 |
| COc1cccc(Oc2nnc(Cl)cc2O)c1 [Compound No. 425, 6-Chloro-3-(3-methoxyphenoxy)-4-pyridazinol] | 199 to 203 |
| Oc1cc(Cl)nnc1Oc1ccccc1C1CCCCC1 [Compound No. 293, 6-Chloro-3-(2-cyclohexylphenoxy)-4-pyridazinol] | 158 to 159 |
| CCc1cc(I)ccc1Oc1nnc(Cl)cc1O [Compound No. 562, 6-Chloro-3-(2-ethyl-4-iodophenoxy)-4-pyridazinol] | 199 to 201 |
| Oc1cc(Cl)nnc1Oc1cccc2ccoc12 [Compound No. 541, 3-(1-Benzofuran-7-yloxy)-6-chloro-4-pyridazinol] | 201 to 202 |
| COCC1(c2ccccc2Oc2nnc(Cl)cc2O)CC1 [Compound No. 163, 6-Chloro-3-{2-[1-(methoxymethyl)cyclopropyl]phenoxy}-4-pyridazinol] | 187 to 190 |
| CC(C)c1cccc(Oc2nnc(Cl)cc2O)c1 [Compound No. 415, 6-Chloro-3-(3-isopropylphenoxy)-4-pyridazinol] | 176 to 177 |
| C#Cc1ccccc1Oc1nnc(Cl)cc1O [Compound No. 308, 6-Chloro-3-(2-ethynylphenoxy)-4-pyridazinol] | 189 to 191 |
| Oc1cc(Cl)nnc1Oc1ccccc1C1CCCC1 [Compound No. 292, 6-Chloro-3-(2-cyclopentylphenoxy)-4-pyridazinol] | 178 to 180 |
| Oc1cc(Cl)nnc1Oc1ccccc1C1CCC1 [Compound No. 284, 6-Chloro-3-(2-cyclobutylphenoxy)-4-pyridazinol] | 188 to 189 |
| Cc1cccc(C2CC2)c1Oc1nnc(Cl)cc1OC(=O)N(C)C | 136 to 138 |
| Cc1ccc(Oc2nnc(Cl)cc2O)c(C(C)(C)C)c1 [Compound No. 567, 3-(2-tert-Butyl-4-methylphenoxy)-6-chloro-4-pyridazinol] | 230 to 236 |
| Cc1ccc(C(=O)O)cc1Oc1nnc(Cl)cc1O [Compound No. 626, 3-[(6-Chloro-4-hydroxy-3-pyridazinyl)oxy]-4-methylbenzoic acid] | 238 to 240 |

More lines, now with the values ahead:

| melting point [°C] | Structure (SMILES) |
| --- | --- |
| 119 to 122 | Cc1ccc(S(=O)(=O)Oc2cc(Cl)nnc2Oc2ccc(Br)cc2C(C)C)cc1 [Compound No. 2248, 3-(4-Bromo-2-isopropylphenoxy)-6-chloro-4-pyridazinyl 4-methylbenzenesulfonate] |
| 240 to 247 | CC(C)(C)c1cccc(Br)c1Oc1nnc(Cl)cc1O [Compound No. 761, 3-(2-Bromo-6-tert-butylphenoxy)-6-chloro-4-pyridazinol] |
| 157 to 158 | Cc1ccccc1Oc1nnc(Cl)cc1OC(=O)c1ccccc1C(=O)Oc1cc(Cl)nnc1Oc1ccccc1C [Compound No. 2827, Bis[6-chloro-3-(2-methylphenoxy)-4-pyridazinyl]phthalate] |
| 91 to 92 | Cc1cccc(C2CC2)c1Oc1nnc(Cl)cc1OC(=O)CC(C)(C)C [Compound No. 2662, 6-Chloro-3-(2-cyclopropyl-6-methylphenoxy)-4-pyridazinyl 3,3-dimethylbutanoate] |
| 98 to 101 | CC(=O)Oc1cc(Cl)nnc1Oc1c(C)cccc1C1CC1 [Compound No. 1151, 6-Chloro-3-(2-cyclopropyl-6-methylphenoxy)-4-pyridazinyl acetate] |
| 215 to 217 | CCc1cccc(Br)c1Oc1nnc(Cl)cc1O [Compound No. 759, 3-(2-Bromo-6-ethylphenoxy)-6-chloro-4-pyridazinol] |
| 143 to 155 | COc1ccc(Cl)cc1Oc1nnc(Cl)cc1O [Compound No. 701, 3-(5-Chloro-2-methoxyphenoxy)-6-chloro-4-pyridazinol] |
| 118 to 120 | Cc1cc(OC(=O)c2ccccc2)ccc1Oc1nnc(Cl)cc1OC(=O)c1ccccc1 [Compound No. 3850, 4-{[4-(Benzoyloxy)-6-chloro-3-pyridazinyl]oxy}-3-methylphenyl benzoate] |
| 171 to 175 | Cc1ccc(C)c(C2CC2)c1Oc1nnc(Cl)cc1O [Compound No. 1073, 6-Chloro-3-(2-cyclopropyl-3,6-dimethylphenoxy)-4-pyridazinol] |
| 266 to 274 | Oc1cc(Cl)nnc1Oc1c(Cl)cccc1Br [Compound No. 734, 3-(2-Bromo-6-chlorophenoxy)-6-chloro-4-pyridazinol] |
| 105 to 106 | Cc1cccc(C2CC2)c1Oc1nnc(Cl)cc1OS(=O)(=O)c1ccccc1 [Compound No. 2176, 6-Chloro-3-(2-cyclopropyl-6-methylphenoxy)-4-pyridazinyl benzenesulfonate] |
| 134 to 137 | CCCc1cccc(F)c1Oc1nnc(Cl)cc1O [Compound No. 716, 6-Chloro-3-(2-fluoro-6-propylphenoxy)-4-pyridazinol] |
| 183 to 186 | C=C(C)c1cccc(C)c1Oc1nnc(Cl)cc1O [Compound No. 2577, 6-Chloro-3-(2-isopropenyl-6-methylphenoxy)-4-pyridazinol] |
| 35 to 37 | CCCCCCCCCCCCCCC(=O)Oc1cc(Cl)nnc1Oc1c(C)cccc1C1CC1 [Compound No. 1260, 6-Chloro-3-(2-cyclopropyl-6-methylphenoxy)-4-pyridazinyl pentadecanoate] |
| 112 to 115 | Cc1cccc(C2CC2)c1Oc1nnc(Cl)cc1OC(=O)C(C)(C)CCl [Compound No. 2703, 6-Chloro-3-(2-cyclopropyl-6-methylphenoxy)-4-pyridazinyl 3-chloro-2,2-dimethylpropanoate] |
| 81 to 82.5 | Cc1ccccc1Oc1nnc(Cl)cc1OC(=O)c1ccc(Cl)cc1Cl [Compound No. 1603, 6-Chloro-3-(2-methylphenoxy)-4-pyridazinyl 2,4-dichlorobenzoate] |
| 197 to 199 | CC1(C)Cc2c(Oc3nnc(Cl)cc3O)cccc21 [Compound No. 2556, 6-Chloro-3-[(7,7-dimethylbicyclo[4.2.0]octa-1,3,5-trien-2-yl)oxy]-4-pyridazinol] |
| 255 to 257 | Cc1ccc(C)c(Oc2nnc(Cl)cc2O)c1Br [Compound No. 1040, 3-(2-Bromo-3,6-dimethylphenoxy)-6-chloro-4-pyridazinol] |
| 215 to 217 | Cc1cc(C)c(Oc2nnc(Cl)cc2O)c(C2CC2)c1 [Compound No. 1123, 6-Chloro-3-(2-cyclopropyl-4,6-dimethylphenoxy)-4-pyridazinol] |
| 115 to 118 | Cc1cccc(C2CC2)c1Oc1nnc(Cl)cc1OC(=O)N1CCCC1 [Compound No. 1937, 6-Chloro-3-(2-cyclopropyl-6-methylphenoxy)-4-pyridazinyl 1-pyrrolidinecarboxylate] |
| 248 to 251 | Oc1cccc(Oc2nnc(Cl)cc2O)c1 [Compound No. 2544, 6-Chloro-3-(3-hydroxyphenoxy)-4-pyridazinol] |
| 182 to 184 | CC(=O)c1ccc(Oc2nnc(Cl)cc2O)c(C)c1 [Compound No. 2570, 1-{4-[(6-Chloro-4-hydroxy-3-pyridazinyl)oxy]-3-methylphenyl}ethanone] |
| 221 to 224 | CC=Cc1ccc(Cl)cc1Oc1nnc(Cl)cc1O [Compound No. 680, 6-Chloro-3-[5-chloro-2-(1-propenyl)phenoxy]-4-pyridazinol] |
| 204 to 206 | Cc1cc(Oc2nnc(Cl)cc2O)cc(C(C)C)c1 [Compound No. 1000, 6-Chloro-3-(3-isopropyl-5-methylphenoxy)-4-pyridazinol] |
| 56 to 57 | Cc1ccc(S(=O)(=O)Oc2cc(Cl)nnc2Oc2cccc(C(C)(C)C)c2)cc1 [Compound No. 2235, 3-(3-tert-Butylphenoxy)-6-chloro-4-pyridazinyl 4-methylbenzenesulfonate] |
| 90 to 92 | Cc1ccc(S(=O)(=O)Oc2cc(Cl)nnc2Oc2cc(C)ccc2C(C)C)cc1 [Compound No. 2249, 6-Chloro-3-(2-isopropyl-5-methylphenoxy)-4-pyridazinyl 4-methylbenzenesulfonate] |
| 250 to 253 | COc1ccc(C2CC2)c(Oc2nnc(Cl)cc2O)c1C [Compound No. 1069, 6-Chloro-3-(6-cyclopropyl-3-methoxy-2-methylphenoxy)-4-pyridazinol] |
| 89 to 91 | Cc1ccccc1C(=O)Oc1cc(Cl)nnc1Oc1ccccc1C1CCCCC1 [Compound No. 1455, 6-Chloro-3-(2-cyclohexylphenoxy)-4-pyridazinyl 2-methylbenzoate] |
| 168 to 174 | Cc1cccc(C2CC2)c1Oc1nnc(Cl)cc1OC(=O)c1cc(Cl)cc(Cl)c1 [Compound No. 3226, 6-Chloro-3-(2-cyclopropyl-6-methylphenoxy)-4-pyridazinyl 3,5-dichlorobenzoate] |
